Data published in patent US20260176270A1 (Exelixis, Inc., priority 2022, published 2026).
Like-named read-outs stand apart in the source and are kept apart here.

Columns and labels:
[1] = target: T1, PKMYT1 (Homo sapiens, UniProt Q99640); experiment: ADP-Glo PKMYT1 ATP-depletion assay; conditions: 50 nM PKMYT1, 13.3 nM CDK1, read-out: Biochemical IC50
T1 construct: PKMYT1 (93 kD, full length, N-terminal GST tag from Signal Chem); GST (N); purchased Signal Chem
T1 sequence (Q99640 1-499): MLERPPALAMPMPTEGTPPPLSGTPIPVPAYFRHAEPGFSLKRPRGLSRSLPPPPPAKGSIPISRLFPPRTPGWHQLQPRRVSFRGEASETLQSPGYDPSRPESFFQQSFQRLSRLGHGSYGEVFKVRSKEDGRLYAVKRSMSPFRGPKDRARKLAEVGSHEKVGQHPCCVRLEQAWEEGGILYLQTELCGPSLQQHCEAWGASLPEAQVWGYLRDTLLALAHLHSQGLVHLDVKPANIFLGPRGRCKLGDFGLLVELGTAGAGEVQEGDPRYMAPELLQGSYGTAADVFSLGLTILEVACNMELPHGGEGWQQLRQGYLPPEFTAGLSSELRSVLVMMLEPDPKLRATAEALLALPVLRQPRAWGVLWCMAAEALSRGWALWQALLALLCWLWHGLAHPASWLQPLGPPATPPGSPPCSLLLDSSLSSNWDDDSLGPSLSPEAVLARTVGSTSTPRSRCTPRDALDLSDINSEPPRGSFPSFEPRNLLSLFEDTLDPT
Method in brief: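 Full-length N-terminal GST-tagged PKMYT1 (50 nM) with GST-CDK1 (13.3 nM) as substrate and 88 µM ATP, in Hepes buffer with MgCl2, MnCl2, DTT and BSA; DMSO <1%. Incubated 120 min at RT. ADP formed was quantified by ADP-Glo luminescence and used to derive biochemical IC50.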

[2] = tested on: phosphorylation of CDK1 at Thr14 in HCC1806 cells; experiment: Cell lysate AlphaLISA assay measuring inhibition of phosphorylation of CDK1 Thr14; assay type: cell-based; conditions: read-out: Cellular IC50
Method in brief: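 HCC1806 cells seeded overnight, then treated 4 h at 37 °C, 5% CO2 with compounds in DMSO; washed and lysed, lysates frozen overnight at −80 °C. CDK1 Thr14 phosphorylation read by AlphaLISA SureFire Ultra; data normalized to DMSO (0% inhibition) and 3 μM reference compound to give IC50.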

IC50 [1] [nM] | IC50 ([2]; Homo sapiens, HCC1806, 4 h) [nM] | IC50 ([2]; 4 hours) [nM] | Compound
1000 to 5000 | 1000 to 5000 | – | COc1ccc2c(-c3c(C)ccc(O)c3C)c(N)c(C(N)=O)nc2c1 [Compound 47, 3-Amino-4-(3-hydroxy-2,6-dimethylphenyl)-7-methoxyquinoline-2-carboxamide]
≥ 5000 | ≥ 5000 | – | NC(=O)c1cc2nccnc2c(-c2ccc3ocnc3c2)c1N [Compound 178]
1000 to 5000 | ≥ 5000 | – | Cc1c(O)cncc1-c1c(N)c(C(N)=O)nc2c1NCCC2 [Compound 334]
≥ 5000 | ≥ 5000 | – | Cc1cnncc1-c1c(N)c(C(N)=O)nc2cccnc12 [Compound 257]
50 to 500 | – | 1000 to 5000 | Cc1ccc(O)c(C)c1-c1c(N)c(C(N)=O)nc2ccc(F)cc12 [Compound 20, 3-Amino-6-fluoro-4-(3-hydroxy-2,6-dimethylphenyl)quinoline-2-carboxamide]
≥ 5000 | ≥ 5000 | – | Cc1[nH]nc2cccc(-c3cc(C(N)=O)nc4ccccc34)c12 [Compound 19, 4-(3-Methyl-2H-indazol-4-yl)quinoline-2-carboxamide]
< 50 | – | 50 to 500 | Cc1c(O)cccc1-c1c(N)c(C(N)=O)nc2cc(C(F)(F)F)cnc12 (atropisomer, axis not shown) [Compound 166]
50 to 500 | – | 500 to 1000 | Cc1c(O)cccc1-c1c(N)c(C(N)=O)cc2ncccc12 (atropisomer, axis not shown; (M)) [Compound 68, (M)-6-Amino-5-(3-hydroxy-2-methylphenyl)quinoline-7-carboxamide]
500 to 1000 | – | 1000 to 5000 | Cc1c(O)cccc1-c1c(N)c(C(N)=O)nc2cccnc12 (single isomer, unassigned) [Compound 5, (M)-3-amino-4-(3-hydroxy-2-methylphenyl)-1,5-naphthyridine-2-carboxamide]
50 to 500 | – | 1000 to 5000 | Cc1ccc2[nH]nc(F)c2c1-c1c(N)c(C(N)=O)cc2nccnc12 (atropisomer, axis not shown) [Compound 300]
1000 to 5000 | ≥ 5000 | – | Cn1c(-c2c(N)c(C(N)=O)nc3cccnc23)cccc1=O [Compound 158]
< 50 | 50 to 500 | – | Cc1ccc(O)c(C)c1-c1c(N)c(C(N)=O)nc2cccnc12 [Compound 3, 3-Amino-4-(3-hydroxy-2,6-dimethylphenyl)-1,5-naphthyridine-2-carboxamide]
50 to 500 | – | 1000 to 5000 | Cc1ccc2[nH]ncc2c1-c1c(N)c(C(N)=O)nc2cccnc12 (single isomer, unassigned) [Compound 7, (P)-3-amino-4-(5-methyl-1H-indazol-4-yl)-1,5-naphthyridine-2-carboxamide]
≥ 5000 | ≥ 5000 | – | Cc1c(O)cccc1-c1cc(C(N)=O)nc2c(C)ccc(C)c12 [Compound 52, 4-(3-Hydroxy-2-methylphenyl)-5,8-dimethylquinoline-2-carboxamide]
< 50 | 50 to 500 | – | Cc1c(-c2c(N)c(C(N)=O)cc3nccnc23)ccc(F)c1O [Compound 227]
1000 to 5000 | – | ≥ 5000 | Cc1c(O)cccc1-c1c(N)c(C(N)=O)cc2nc(C(F)(F)F)cnc12 (atropisomer, axis not shown; (M)) [Compound 103, (M)-7-Amino-8-(3-hydroxy-2-methylphenyl)-3-(trifluoromethyl)quinoxaline-6-carboxamide]
500 to 1000 | ≥ 5000 | – | NC(=O)c1nc2cccnc2c(-c2cnccc2C(F)(F)F)c1N [Compound 259]
1000 to 5000 | – | ≥ 5000 | NC(=O)c1cc2nccnc2c(-c2cc(O)cnc2Cl)c1N (atropisomer, axis not shown) [Compound 163]
≥ 5000 | ≥ 5000 | – | Cc1cc(O)cc(C)c1-c1cc(C(N)=O)cc2nccnc12 [Compound 131]
50 to 500 | 1000 to 5000 | – | Cc1ccc(O)c(C)c1-c1c(N)c(C(N)=O)nc2cc(F)ccc12 [Compound 43, 3-Amino-7-fluoro-4-(3-hydroxy-2,6-dimethylphenyl)quinoline-2-carboxamide]
1000 to 5000 | ≥ 5000 | – | Cc1ncc(O)c(C)c1-c1c(N)c(C(N)=O)nc2cccnc12 [Compound 256]
≥ 5000 | ≥ 5000 | – | Cc1nc(F)ccc1-c1c(N)c(C(N)=O)nc2cccnc12 [Compound 228]

IC50 [1] [nM] | IC50 ([2]; Homo sapiens, HCC1806, 4 h) [nM] | IC50 ([2]; 4 hours) [nM] | Compound
< 50 | – | < 50 | Cc1c(O)cccc1-c1c(N)c(C(N)=O)nc2cccnc12 (single isomer, unassigned) [Compound 4, (P)-3-Amino-4-(3-hydroxy-2-methylphenyl)-1,5-naphthyridine-2-carboxamide]
50 to 500 | 50 to 500 | – | Cc1nc2cc(C(N)=O)c(N)c(-c3cccc(O)c3C)c2nc1C [Compound 91, 7-Amino-8-(3-hydroxy-2-methylphenyl)-2,3-dimethylquinoxaline-6-carboxamide]
50 to 500 | – | 1000 to 5000 | Cc1c(O)cccc1-c1c(N)c(C(N)=O)cc2nc(C)c(=O)n(C)c12 [Compound 138]
< 50 | – | 50 to 500 | Cc1c(O)cccc1-c1c(N)c(C(N)=O)cc2ncc(C(F)(F)F)nc12 (single isomer, unassigned) [Compound 124, (P)-7-Amino-8-(3-hydroxy-2-methylphenyl)-2-(trifluoromethyl)quinoxaline-6-carboxamide]
< 50 | – | 500 to 1000 | COc1nc2c(-c3cccc(O)c3C)c(N)c(C(N)=O)cc2nc1C (atropisomer, axis not shown) [Compound 218]
1000 to 5000 | ≥ 5000 | – | Cc1ccc2c(-c3cccc(O)c3C)c(N)c(C(N)=O)nc2c1 [Compound 46, 3-Amino-4-(3-hydroxy-2-methylphenyl)-7-methylquinoline-2-carboxamide]
1000 to 5000 | – | ≥ 5000 | Cc1c(-c2c(N)c(C(N)=O)cc3nccnc23)ccc(F)c1O (atropisomer, axis not shown) [Compound 307]
< 50 | 50 to 500 | – | Cc1cnc2c(-c3c(C)ccc(O)c3C)c(N)c(C(N)=O)cc2c1 (atropisomer, axis not shown) [Compound 213]
< 50 | – | < 50 | Cc1ccc(O)c(C)c1-c1c(N)c(C(N)=O)nc2cccnc12 (single isomer, unassigned) [Compound 9, (P)-3-Amino-4-(3-hydroxy-2,6-dimethylphenyl)-1,5-naphthyridine-2-carboxamide]
50 to 500 | 1000 to 5000 | – | NC(=O)c1cc2nccnc2c(-c2cc(O)ccc2F)c1N [Compound 114, 7-Amino-8-(2-fluoro-5-hydroxyphenyl)quinoxaline-6-carboxamide]
1000 to 5000 | – | ≥ 5000 | COc1nc2c(-c3cccc(O)c3C)c(N)c(C(N)=O)cc2nc1C (atropisomer, axis not shown) [Compound 224]
< 50 | – | 50 to 500 | COc1ccnc2c(-c3cccc(O)c3C)c(N)c(C(N)=O)cc12 [Compound 318]
50 to 500 | 1000 to 5000 | – | Cc1c(O)cncc1-c1c(N)c(C(N)=O)cc2nccnc12 [Compound 113, 7-amino-8-(5-hydroxy-4-methylpyridin-3-yl)quinoxaline-6-carboxamide]
50 to 500 | 1000 to 5000 | – | NC(=O)c1cc2nccnc2c(-c2cccc3[nH]ncc23)c1N [Compound 108, 7-Amino-8-(1H-indazol-4-yl)quinoxaline-6-carboxamide]
≥ 5000 | – | ≥ 5000 | NC(=O)c1cc2nccnc2c(-c2cccc(O)c2Cl)c1N (single isomer, unassigned) [Compound 106, (M)-7-amino-8-(2-chloro-3-hydroxyphenyl)quinoxaline-6-carboxamide]
50 to 500 | – | ≥ 5000 | NC(=O)c1nc2cccnc2c(-c2cccc3[nH]nc(F)c23)c1N [Compound 306]
1000 to 5000 | ≥ 5000 | – | NC(=O)c1nc2c(c(-c3cc(O)cnc3F)c1N)NCCC2 (atropisomer, axis not shown) [Compound 294]
50 to 500 | – | ≥ 5000 | Cc1c(O)cccc1-c1c(N)c(C(N)=O)cc2c1ncc(=O)n2C (atropisomer, axis not shown) [Compound 284]
50 to 500 | – | 500 to 1000 | Cc1cnc2cc(C(N)=O)c(N)c(-c3cccc(O)c3C)c2n1 (atropisomer, axis not shown) [Compound 169]
50 to 500 | 1000 to 5000 | – | Cc1ccc(O)c(C)c1-c1c(N)c(C(N)=O)nc2ccc(Cl)cc12 [Compound 36, 3-Amino-6-chloro-4-(3-hydroxy-2,6-dimethyl-phenyl) quinoline-2-carboxamide]
1000 to 5000 | ≥ 5000 | – | NC(=O)c1nc2cccnc2c(-c2cnn3ccccc23)c1N [Compound 323]
